From US10681909B2, “Herbicidal triazoles” (FMC Corporation, priority 2014, dated 2020)

What was measured:
morningglory [1] = experiment: Test A preemergence; format: in vivo, Ipomoea spp.; conditions: 0 to 100 scale (0 no effect, 100 complete control)
Text: (§1) Seeds of plant species selected from barnyardgrass (Echinochloa crus-galli), crabgrass, large (large crabgrass, Digitaria sanguinalis), kochia (Kochia scoparia), ragweed (common ragweed, Ambrosia elatior), foxtail, giant (giant foxtail, Setaria faberii), morningglory (Ipomoea spp.), pigweed (Amaranthus retroflexus), velvetleaf (Abutilon theophrasti), ryegrass, Italian (Italian ryegrass, Lolium multiflorum), wheat (Triticum aestivum), and corn (Zea mays) were planted into a blend of loam soil and sand and treated preemergence with a directed soil spray using test chemicals formulated in a non-phytotoxic solvent mixture which included a surfactant. At the same time, plants selected from these crop and weed species and also blackgrass (Alopecurus myosuroides), and galium (catchweed bedstraw, Galium aparine), were planted in pots containing the same blend of loam soil and sand and treated with postemergence applications of test chemicals formulated in the same manner. Plants ranged in height from 2 to 10 cm and were in the one- to two-leaf stage for the postemergence treatment. […] A dash (-) response means no test result.

ducksalad = experiment: Test B flooded paddy test; format: in vivo, Heteranthera limosa; conditions: applied to paddy water at 2-leaf stage, visual rating after 13 to 15 d, scale 0 (no effect) to 100 (complete control)
Text: (§2) At time of treatment, test pots were flooded to 3 cm above the soil surface, treated by application of test compounds directly to the paddy water, and then maintained at that water depth for the duration of the test. Treated plants and controls were maintained in a greenhouse for 13 to 15 d, after which time all species were compared to controls and visually evaluated. […] A dash (-) response means no test result.

foxtail, giant [2] = experiment: Test A preemergence; format: in vivo, Setaria faberii; conditions: 0 to 100 scale (0 no effect, 100 complete control)
In short: (§3)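 Herbicidal response was scored on plants treated pre- or postemergence with surfactant-containing, non-phytotoxic solvent formulations. Preemergence meant a directed spray onto soil (loam–sand) holding sown seed; postemergence plants were at one to two leaves.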

rice = experiment: Test B flooded paddy test; format: in vivo, Oryza sativa; conditions: applied to paddy water at 2-leaf stage, visual rating after 13 to 15 d, scale 0 (no effect) to 100 (complete control)
Text: as §2

morningglory [3] = experiment: Test A postemergence; format: in vivo, Ipomoea spp.; conditions: 0 to 100 scale (0 no effect, 100 complete control), approx. 10 d
Text: as §1

foxtail, giant [4] = experiment: Test A postemergence; format: in vivo, Setaria faberii; conditions: 0 to 100 scale (0 no effect, 100 complete control), approx. 10 d
In short: as §3

corn [5] = experiment: Test A postemergence; format: in vivo, Zea mays; conditions: 0 to 100 scale (0 no effect, 100 complete control), approx. 10 d
In short: as §3

barnyardgrass [6] = experiment: Test B flooded paddy test; format: in vivo, Echinochloa crus-galli; conditions: applied to paddy water at 2-leaf stage, visual rating after 13 to 15 d, scale 0 (no effect) to 100 (complete control)
Text: as §2

pigweed [7] = experiment: Test A postemergence; format: in vivo, Amaranthus retroflexus; conditions: 0 to 100 scale (0 no effect, 100 complete control), approx. 10 d
In short: as §3

crabgrass, large [8] = experiment: Test A postemergence; format: in vivo, Digitaria sanguinalis; conditions: 0 to 100 scale (0 no effect, 100 complete control), approx. 10 d
Text: as §1

pigweed [9] = experiment: Test A preemergence; format: in vivo, Amaranthus retroflexus; conditions: 0 to 100 scale (0 no effect, 100 complete control)
In short: as §3

wheat [10] = experiment: Test A preemergence; format: in vivo, Triticum aestivum; conditions: 0 to 100 scale (0 no effect, 100 complete control)
Text: as §1

corn [11] = experiment: Test A preemergence; format: in vivo, Zea mays; conditions: 0 to 100 scale (0 no effect, 100 complete control)
Text: as §1

wheat [12] = experiment: Test A postemergence; format: in vivo, Triticum aestivum; conditions: 0 to 100 scale (0 no effect, 100 complete control), approx. 10 d
In short: as §3

barnyardgrass [13] = experiment: Test A preemergence; format: in vivo, Echinochloa crus-galli; conditions: 0 to 100 scale (0 no effect, 100 complete control)
In short: as §3

crabgrass, large [14] = experiment: Test A preemergence; format: in vivo, Digitaria sanguinalis; conditions: 0 to 100 scale (0 no effect, 100 complete control)
Text: as §1

sedge, umbrella = experiment: Test B flooded paddy test; format: in vivo, Cyperus difformis; conditions: applied to paddy water at 2-leaf stage, visual rating after 13 to 15 d, scale 0 (no effect) to 100 (complete control)
Text: as §2

velvetleaf [15] = experiment: Test A preemergence; format: in vivo, Abutilon theophrasti; conditions: 0 to 100 scale (0 no effect, 100 complete control)
Text: as §1

barnyardgrass [16] = experiment: Test A postemergence; format: in vivo, Echinochloa crus-galli; conditions: 0 to 100 scale (0 no effect, 100 complete control), approx. 10 d
In short: as §3

velvetleaf [17] = experiment: Test A postemergence; format: in vivo, Abutilon theophrasti; conditions: 0 to 100 scale (0 no effect, 100 complete control), approx. 10 d
Text: as §1

Row | Compound | Plant response rating, Morningglory (morningglory [1]; 125 g ai/ha) | Plant response rating, Morningglory (morningglory [1]; 500 g ai/ha, approx. 10 d) | Plant response rating, Foxtail, Giant (foxtail, giant [2]; 125 g ai/ha) | Plant response rating, Foxtail, Giant (foxtail, giant [2]; 500 g ai/ha, approx. 10 d) | Plant response rating, Morningglory (morningglory [3]; 125 g ai/ha) | Plant response rating, Morningglory (morningglory [3]; 500 g ai/ha) | Plant response rating, Foxtail, Giant (foxtail, giant [4]; 125 g ai/ha) | Plant response rating, Foxtail, Giant (foxtail, giant [4]; 500 g ai/ha) | Plant response rating, Corn (corn [5]; 125 g ai/ha) | Plant response rating, Corn (corn [5]; 500 g ai/ha) | Plant response rating, Pigweed (pigweed [7]; 125 g ai/ha) | Plant response rating, Pigweed (pigweed [7]; 500 g ai/ha) | Plant response rating, Crabgrass, Large (crabgrass, large [8]; 125 g ai/ha) | Plant response rating, Crabgrass, Large (crabgrass, large [8]; 500 g ai/ha) | Plant response rating, Pigweed (pigweed [9]; 125 g ai/ha) | Plant response rating, Pigweed (pigweed [9]; 500 g ai/ha, approx. 10 d) | Plant response rating, Wheat (wheat [10]; 125 g ai/ha) | Plant response rating, Wheat (wheat [10]; 500 g ai/ha, approx. 10 d) | Plant response rating, Corn (corn [11]; 125 g ai/ha) | Plant response rating, Corn (corn [11]; 500 g ai/ha, approx. 10 d) | also measured
1 | CCc1nc(-c2cccc(C(F)(F)F)c2)nn1Cc1ccnc(C(F)(F)F)c1 [Compound 11] | 0 | 20 | 20 | 90 | 80 | 90 | 20 | 60 | 20 | 50 | 80 | 100 | 20 | 60 | 30 | 100 | 0 | 0 | 0 | 0 | Plant response rating, Ducksalad, Flood (ducksalad; 250 g ai/ha): 0; Plant response rating, Rice, Flood (rice; 250 g ai/ha): 0; Plant response rating, Barnyardgrass, Flood (barnyardgrass [6]; 250 g ai/ha): 0; Plant response rating, Wheat (wheat [12]; 125 g ai/ha): 10; Plant response rating, Wheat (wheat [12]; 500 g ai/ha): 20; Plant response rating, Barnyardgrass (barnyardgrass [13]; 125 g ai/ha): 0; Plant response rating, Barnyardgrass (barnyardgrass [13]; 500 g ai/ha, approx. 10 d): 30; Plant response rating, Crabgrass, Large (crabgrass, large [14]; 125 g ai/ha): 20; Plant response rating, Crabgrass, Large (crabgrass, large [14]; 500 g ai/ha, approx. 10 d): 90; Plant response rating, Sedge, Umbrella, Flood (sedge, umbrella; 250 g ai/ha): 0; Plant response rating, Velvetleaf (velvetleaf [15]; 125 g ai/ha): 0; Plant response rating, Velvetleaf (velvetleaf [15]; 500 g ai/ha, approx. 10 d): 0; Plant response rating, Barnyardgrass (barnyardgrass [16]; 125 g ai/ha): 0; Plant response rating, Barnyardgrass (barnyardgrass [16]; 500 g ai/ha): 50; Plant response rating, Velvetleaf (velvetleaf [17]; 125 g ai/ha): 50; Plant response rating, Velvetleaf (velvetleaf [17]; 500 g ai/ha): 100
2 | CCCc1nc(-c2ccc(C(F)(F)F)cc2)nn1Cc1ccnc(C(F)(F)F)c1 [Compound 12] | 70 | 90 | 100 | 100 | 70 | 100 | 70 | 90 | 20 | 40 | 100 | 100 | 50 | 90 | 100 | 100 | 10 | 30 | 0 | 20 | Plant response rating, Ducksalad, Flood (ducksalad; 125 g ai/ha): 0; Plant response rating, Rice, Flood (rice; 125 g ai/ha): 0; Plant response rating, Barnyardgrass, Flood (barnyardgrass [6]; 125 g ai/ha): 0; Plant response rating, Wheat (wheat [12]; 125 g ai/ha): 30; Plant response rating, Wheat (wheat [12]; 500 g ai/ha): 40; Plant response rating, Barnyardgrass (barnyardgrass [13]; 125 g ai/ha): 50; Plant response rating, Barnyardgrass (barnyardgrass [13]; 500 g ai/ha, approx. 10 d): 80; Plant response rating, Crabgrass, Large (crabgrass, large [14]; 125 g ai/ha): 100; Plant response rating, Crabgrass, Large (crabgrass, large [14]; 500 g ai/ha, approx. 10 d): 100; Plant response rating, Sedge, Umbrella, Flood (sedge, umbrella; 125 g ai/ha): 0; Plant response rating, Velvetleaf (velvetleaf [15]; 125 g ai/ha): 70; Plant response rating, Velvetleaf (velvetleaf [15]; 500 g ai/ha, approx. 10 d): 70; Plant response rating, Barnyardgrass (barnyardgrass [16]; 125 g ai/ha): 30; Plant response rating, Barnyardgrass (barnyardgrass [16]; 500 g ai/ha): 50; Plant response rating, Velvetleaf (velvetleaf [17]; 125 g ai/ha): 70; Plant response rating, Velvetleaf (velvetleaf [17]; 500 g ai/ha): 100
